Measurements as given in the NIST ThermoML archive (doi:10.1021/je200811n).
Numbers after ± are expanded uncertainties.

Conditions: Hot wire method

F/C=C/C(F)(F)F [trans-1,3,3,3-tetrafluoropropene]
Conditions	thermal conductivity [W/m/K]
281.63 K, 15232 kPa, Liquid	0.08862 ± 0.00097
281.67 K, 23307 kPa, Liquid	0.09249 ± 0.001
281.68 K, 20203 kPa, Liquid	0.09077 ± 0.00099
281.7 K, 445 kPa, Liquid	0.08035 ± 0.00092
281.71 K, 5379 kPa, Liquid	0.08327 ± 0.00091
281.72 K, 15226 kPa, Liquid	0.08837 ± 0.00097
281.76 K, 10284 kPa, Liquid	0.08598 ± 0.00094
281.8 K, 5372 kPa, Liquid	0.08315 ± 0.00091
281.82 K, 242 kPa, Gas	0.01258 ± 0.00043
281.84 K, 200 kPa, Gas	0.01237 ± 0.00042
281.86 K, 99 kPa, Gas	0.01213 ± 0.00042
281.86 K, 141 kPa, Gas	0.01223 ± 0.00042
282.04 K, 23299 kPa, Liquid	0.09237 ± 0.001
282.06 K, 242 kPa, Gas	0.01258 ± 0.00043
282.06 K, 20222 kPa, Liquid	0.09082 ± 0.00099
282.07 K, 438 kPa, Liquid	0.07934 ± 0.00088
282.1 K, 200 kPa, Gas	0.01234 ± 0.00042
282.13 K, 98 kPa, Gas	0.01208 ± 0.00041
282.13 K, 140 kPa, Gas	0.01217 ± 0.00042
282.14 K, 434 kPa, Liquid	0.07983 ± 0.00089
282.14 K, 10286 kPa, Liquid	0.08591 ± 0.00094
282.15 K, 23304 kPa, Liquid	0.09213 ± 0.001
282.17 K, 20224 kPa, Liquid	0.09064 ± 0.00099
282.2 K, 5363 kPa, Liquid	0.08314 ± 0.00092
282.21 K, 15223 kPa, Liquid	0.08817 ± 0.00096
282.28 K, 10288 kPa, Liquid	0.08566 ± 0.00094
282.31 K, 242 kPa, Gas	0.01258 ± 0.00043
282.32 K, 5352 kPa, Liquid	0.08296 ± 0.00091
282.36 K, 200 kPa, Gas	0.0123 ± 0.0004
282.4 K, 138 kPa, Gas	0.01213 ± 0.00042
282.52 K, 245 kPa, Gas	0.01231 ± 0.00042
282.54 K, 431 kPa, Liquid	0.07937 ± 0.00088
282.54 K, 23312 kPa, Liquid	0.09188 ± 0.001
282.58 K, 200 kPa, Gas	0.01226 ± 0.00042
282.58 K, 20215 kPa, Liquid	0.09057 ± 0.00099
282.63 K, 428 kPa, Liquid	0.07955 ± 0.00088
282.64 K, 15228 kPa, Liquid	0.08812 ± 0.00097
282.67 K, 145 kPa, Gas	0.01228 ± 0.00042
282.69 K, 23303 kPa, Liquid	0.09187 ± 0.001
282.7 K, 10287 kPa, Liquid	0.0852 ± 0.00094
282.73 K, 20227 kPa, Liquid	0.09025 ± 0.00099
282.76 K, 103 kPa, Gas	0.01237 ± 0.00042
282.77 K, 5352 kPa, Liquid	0.08245 ± 0.00091
282.79 K, 15232 kPa, Liquid	0.0878 ± 0.00096
282.86 K, 10284 kPa, Liquid	0.08516 ± 0.00094
282.9 K, 243 kPa, Gas	0.01231 ± 0.00042
282.94 K, 5351 kPa, Liquid	0.08227 ± 0.00091
282.95 K, 199 kPa, Gas	0.01234 ± 0.00042
283.04 K, 425 kPa, Liquid	0.07934 ± 0.00088
283.07 K, 143 kPa, Gas	0.01233 ± 0.00042
283.13 K, 23323 kPa, Liquid	0.0916 ± 0.001
283.15 K, 424 kPa, Liquid	0.0789 ± 0.00088
283.17 K, 20222 kPa, Liquid	0.08992 ± 0.00099
283.19 K, 101 kPa, Gas	0.01241 ± 0.00042
283.23 K, 15235 kPa, Liquid	0.08758 ± 0.00097
283.26 K, 280 kPa, Gas	0.01243 ± 0.00042
283.3 K, 242 kPa, Gas	0.01229 ± 0.00042
283.33 K, 10277 kPa, Liquid	0.08464 ± 0.00094
283.35 K, 20230 kPa, Liquid	0.08937 ± 0.00099
283.37 K, 199 kPa, Gas	0.01232 ± 0.00042
283.41 K, 5347 kPa, Liquid	0.08183 ± 0.0009
283.44 K, 15228 kPa, Liquid	0.08686 ± 0.00096
283.5 K, 142 kPa, Gas	0.01236 ± 0.00042
283.52 K, 10279 kPa, Liquid	0.08429 ± 0.00093
283.62 K, 5351 kPa, Liquid	0.08173 ± 0.0009
283.63 K, 100 kPa, Gas	0.01246 ± 0.00043
283.64 K, 280 kPa, Gas	0.0125 ± 0.00043
283.73 K, 242 kPa, Gas	0.01238 ± 0.00042
283.81 K, 200 kPa, Gas	0.01236 ± 0.00042
283.96 K, 140 kPa, Gas	0.01236 ± 0.00042
284.06 K, 280 kPa, Gas	0.01255 ± 0.00043
284.11 K, 98 kPa, Gas	0.01249 ± 0.00043
284.18 K, 242 kPa, Gas	0.01239 ± 0.00042
284.26 K, 200 kPa, Gas	0.01238 ± 0.00042
284.45 K, 139 kPa, Gas	0.01242 ± 0.00042
284.62 K, 97 kPa, Gas	0.0125 ± 0.00043
291.03 K, 97 kPa, Gas	0.01317 ± 0.00045
291.05 K, 154 kPa, Gas	0.0132 ± 0.0005
291.06 K, 237 kPa, Gas	0.01331 ± 0.00045
291.26 K, 96 kPa, Gas	0.013 ± 0.001
291.28 K, 154 kPa, Gas	0.01305 ± 0.00044
291.28 K, 236 kPa, Gas	0.01323 ± 0.00045
291.51 K, 234 kPa, Gas	0.01316 ± 0.00045
291.52 K, 95 kPa, Gas	0.01287 ± 0.00044
291.52 K, 155 kPa, Gas	0.01297 ± 0.00044
291.76 K, 232 kPa, Gas	0.01312 ± 0.00045
291.79 K, 95 kPa, Gas	0.01281 ± 0.00044
291.79 K, 155 kPa, Gas	0.01291 ± 0.00044
292.02 K, 231 kPa, Gas	0.01307 ± 0.00044
292.06 K, 94 kPa, Gas	0.01276 ± 0.00043
292.06 K, 155 kPa, Gas	0.01287 ± 0.00044
292.13 K, 314 kPa, Gas	0.01299 ± 0.00044
292.21 K, 238 kPa, Gas	0.01305 ± 0.00044
292.32 K, 154 kPa, Gas	0.01313 ± 0.00045
292.44 K, 97 kPa, Gas	0.01319 ± 0.00045
292.5 K, 311 kPa, Gas	0.01305 ± 0.00044
292.51 K, 336 kPa, Gas	0.0131 ± 0.00045
292.59 K, 236 kPa, Gas	0.01303 ± 0.00044
292.72 K, 154 kPa, Gas	0.01308 ± 0.00044
292.85 K, 96 kPa, Gas	0.01324 ± 0.00045
292.88 K, 308 kPa, Gas	0.01303 ± 0.00044
292.89 K, 333 kPa, Gas	0.01312 ± 0.00045
292.98 K, 235 kPa, Gas	0.01313 ± 0.00045
293.14 K, 154 kPa, Gas	0.01304 ± 0.00044
293.29 K, 330 kPa, Gas	0.01314 ± 0.00045
293.3 K, 95 kPa, Gas	0.01322 ± 0.00045
293.3 K, 306 kPa, Gas	0.0131 ± 0.00045
293.32 K, 349 kPa, Gas	0.01317 ± 0.00045
293.41 K, 233 kPa, Gas	0.01314 ± 0.00045
293.54 K, 400 kPa, Gas	0.01316 ± 0.00045
293.58 K, 155 kPa, Gas	0.01322 ± 0.00045
293.68 K, 347 kPa, Gas	0.01318 ± 0.00045
293.72 K, 327 kPa, Gas	0.01313 ± 0.00045

Liquid
Conditions	thermal conductivity [W/m/K]
283.15 K	0.07962 ± 0.00052
293.15 K	0.07611 ± 0.00051
